Primed or numbered codes have the meaning given here. No end group written: not given here. TAMRA = tetramethylrhodamine fluorescent label; FITC′ = not defined here
Tests used:
[1] = system: M. rosenbergii early vitellogenic oocytes; assay: In vitro incubation of ovary pieces with fluorophore-labelled peptides, confocal imaging of oocytes; format: cell-based, Macrobrachium rosenbergii; settings: for Fluorescent intensity in oocytes compared to Vg246-253-TAMRA: ovary slices in vitro, TAMRA emission; for Distribution of TAMRA-labelled peptide in the oocyte: ovary pieces incubated with Vg-TAMRA or scVg-TAMRA separately, 6 μM, confocal; for Endocytosis into oocytes, distribution of the two fluorescent-labelled peptides: simultaneous incubation with Vg-TAMRA and control-FITC, 6 μM each
Protocol: (§1) Ovary pieces from in-vitro or in-vivo experiments were washed with Schneider's drosophila medium without the peptides for 5 min. Then, the pieces were torn apart on a slide in one drop of the medium to better view the individual oocytes. The slides were inspected, and images were taken by a confocal microscope FV1000 (Olympus) at ×60 magnification. The excitation laser wavelength was 561 nm for the TAMRA labelled peptides and 488 nm for FITC labelled control peptides, and the emission was obtained at […], respectively.
M. rosenbergii ovary pieces of 1-3 mm with oocytes diameter of ˜150 μm (early vitellogenic ovaries) were incubated in a sterile 24-wells plate, 2 cm^2 growth area each well (Biofil®) in a biological hood. Each piece was incubated with 250 μl Schneider's drosophila culture medium with osmolality fixed to 420 mOsm/L and supplemented with FBS (10%), PSA (final concentration: Penicillin—100 units/mL, streptomycin—0.1 mg/mL, Amphotericin B—0.25 μg/mL and insulin 10 mg/ml insulin in 25 mM HEPES). The ovary pieces were incubated either with Vg-TAMRA or scVg-TAMRA or with both Vg-TAMRA and scVg-FITC simultaneously (6 μM each). The plate was incubated at room temperature for 24 and 48 hours. To test dsRNA piggybacking, 55 pmole dsRNA was conjugated to 275 pmole either Vg-TAMRA or scVg-FITC peptides. Ovary pieces were incubated with the dsGFP-Vg-TAMRA or dsGFP-scVg-FITC conjugates and cultured as stated above.
To evaluate the endocytosis capability of oocytes with respect to the newly designed Vg-derived peptides, an in vitro experiment was performed. Vg-derived and control peptides, labeled with TAMRA fluorophore, were detected by confocal microscopy. Both peptides were detected in the vicinity of the oocyte membrane (FIG. 4). […] In order to get the highest certainty regarding the internalization specificity of the Vg-derived peptides, the Vg and control peptides were labelled with an additional fluorophore (FIGS. 4E-4H), Vg peptide was labelled with TAMRA (FIGS. 4E and 4H), while the control peptide has been labelled with FITC molecule (FIG. 4F). A similar result was obtained in this experiment showing distinct distribution of the two fluorescent-labelled peptides.
Further, a dose dependent test with respect to Vg-derived peptides penetration into oocytes using Vg descending concentrations was performed (FIG. 5). Unlike the control scrambled peptide (scVg), the Vg peptide maintained similar pattern of distribution in the oocyte throughout the descending concentrations (FIG. 5, upper row).
The inventors further examined the capability and efficacy of shorter/partial sequences derived from the peptide of the invention to being internalized into M. rosenbergii oocytes. Further, the inventors examined whether homologous peptides derived from a different decapod crustacean, e.g., Litopenaeus vannamei, would also be internalized into M. rosenbergii oocytes.
The mentioned peptides were incubated in vitro with ovary slices to evaluate their internalization. […] In contrast to that, the Vg-derived peptides were capable to enter the oocyte as they were observed beyond the follicular cells inside the oocytes (red dots, FIGS. 11B-11G). […] Moreover, both L. vannamei Vg derived peptides were capable to endocytose into M. rosenbergii oocytes (FIGS. 11F-11G).

[2] = system: oocytes; assay: In vivo assay: peptide injection into the hemolymph of reproductive females, confocal imaging of oocytes and gills; parameters: species or system Macrobrachium rosenbergii; settings: for Fluorescent emission in oocytes after injection: mixture of both peptides injected, 5 μg/gr body weight, oocytes dissected 24 h after injection
Protocol: as §1
Solution containing the culture medium, Vg-TAMRA and scVg-FITC peptides were injected (5 μg/gr body weight) into the hemolymph sinus at the base of the fifth walking leg of a M. rosenbergii reproductive females (14.3±0.4 gr, with opaque white to yellowish ovary, FIG. 2, left). For the injection, a manual micro dispenser syringe was used (Drummond®). After injection, the animals were kept at 28° C. for 24 hours in the culture facility for freshwater prawn M. rosenbergii, at Ben-Gurion University. Vg-dsEGFR or Vg-dsPAX6 conjugates (5:1 molar ratio for conjugation, 5 μg dsRNA/g body weight) were injected twice a week at the first two weeks. From the third week, the injections were performed once a week. The females were monitored daily and upon appearance of the reproductive molt, the females were released to a tank with a male for fertilization. The embryos' development on the pleopods of their mother (FIG. 2, middle) were monitored under stereoscope, and a fraction was collected for RNA extraction and subsequent quantitative PCR analysis.
To determine whether the Vg-TAMRA peptide has the capability to specifically in vivo internalize into oocytes, a mixture of the Vg-TAMRA and the control-FITC peptides were injected into the prawn circulatory system. […] To verify that the two peptides did circulate through the prawn female body, the prawn gills were dissected and examined under the confocal microscope.

[3] = Dynamic light scattering (DLS) of dsRNA-peptide conjugates; format: physicochemical; settings: 700 bp dsRNA, dsRNA:peptide ratio 1:30 (FIG. 6B dots)
Protocol: Constant amount of dsRNA (25 pmole) solution was mixed with an increasing amount of peptide solution in an Eppendorf vial (˜1.5 mL). The total conjugation reaction volume was completed to 15 μl with DEPC treated DDW. The solutions were incubated at room temperature for 20 minutes. To evaluate peptide-dsRNA conjugation, a 1.3% agarose gel was prepared in TAE buffer. Conjugates were mixed with equal volume of loading buffer (50% glycerol and 0.5 M EDTA). Peptide-dsRNA conjugates were separated for 30 minutes at 120 V. Fluorescent emission of conjugates in gels were scanned by using a Typhoon FLA 9500 gel system (GE Healthcare®).
In order to verify whether the Vg-derived peptide was capable to piggyback and internalize a large molecule such as a dsRNA into the oocytes, a conjugation approach between the peptide and dsRNA was developed. The Vg-TAMRA and the control-FITC peptides were synthesized with a cationic poly lysine-histidine tail (KH) to allow electrostatic interactions between the peptides and the negatively charged dsRNA. The dsRNA-peptide complexes prepared at different molar ratios (peptide/dsRNA ratio: 1, 5, 10, 20 and 30) were characterized with two different assays: dynamic light scattering (DLS) and separation on agarose gel.
dsRNA of 700 bp (dsEGFR) and another one a mix of 200 and 230 bp dsRNA (dsPAX6) were prepared (FIG. 3A). […]

DKNIIKPAYGSYKYVEAK-TAMRA (DKNIIKPAYGSYKYVEAK-{TAMRA}) [Vg237-253-TAMRA]
Fluorescent intensity in oocytes compared to Vg246-253-TAMRA [1]: Weaker florescent intensity

CDKNIIKPAYGSYKYVEAHQESVLRK-TAMRA (CDKNIIKPAYGSYKYVEAHQESVLRK-{TAMRA}) [Vg-TAMRA]
Fluorescence intensity in comparison to the control peptide ([1]; descending concentrations 12-0.75 μM, fluorescence and overlay images): higher intensity of the red TAMRA emission
Distribution of TAMRA-labelled peptide in the oocyte [1]: distributed mainly at the cytosolic side of the oocyte membrane
Fluorescent signal in oocytes ([1]; peptide concentration 0.75 μM): No signal was detected
Fluorescent signal in oocytes ([1]; peptide concentration 1.5 μM): clear fluorescent signal
Fluorescent signal in oocytes ([1]; peptide concentration 6 μM): clear fluorescent signal
Fluorescent signal in oocytes ([1]; peptide concentration 12 μM): clear fluorescent signal
Endocytosis into oocytes, distribution of the two fluorescent-labelled peptides [1]: clearly observed
Detection of peptide in gills after injection ([2]; early vitellogenic female injected simultaneously with both peptides): can be detected in the gills
Fluorescent emission in oocytes after injection [2]: a clear 564 nm emission was seen inside the oocytes

Vg235-260-TAMRA: 26 amino acid VgR interacting region peptide; probably the Vg-TAMRA peptide of SEQ ID NO: 22 (CDKNIIKPAYGSYKYVEAHQESVLRK; not fully specified (C-terminus); also: TAMRA label)
Fluorescent intensity in oocytes compared to Vg246-253-TAMRA [1]: Weaker florescent intensity

KHKHKHKHKHKHKHKHKHCDKNIIKPAYGSYKYVEAHQESVLRK-TAMRA (KHKHKHKHKHKHKHKHKHCDKNIIKPAYGSYKYVEAHQESVLRK-{TAMRA}) [KH9-Vg]
Particle radius (DLS) [3]: ~100 nm

CQAPVKLIAYDKNKYEHEYRISVSGK-FITC (CQAPVKLIAYDKNKYEHEYRISVSGK-{FITC′}) [scVg-FITC, reference compound]
Internalization into M. rosenbergii oocytes ([1]; ovary slices incubated with Vg-derived peptide TAMRA and scVg-FITC simultaneously): observed only on the outer area of the oocyte
Endocytosis into oocytes, distribution of the two fluorescent-labelled peptides [1]: only on the outer surface of the membrane
Detection of peptide in gills after injection ([2]; in vivo): can be detected in the gills
Fluorescent emission in oocytes after injection [2]: absent from oocytes

DKNIIKPK-TAMRA (DKNIIKPK-{TAMRA}) [Vg237-244-TAMRA]
Fluorescent intensity in oocytes compared to Vg246-253-TAMRA [1]: Weaker florescent intensity

CQAPVKLIAYDKNKYEHEYRISVSGK-TAMRA (CQAPVKLIAYDKNKYEHEYRISVSGK-{TAMRA}) [scVg-TAMRA, reference compound]
Distribution of TAMRA-labelled peptide in the oocyte [1]: mainly dispersed on the outer surface of the oocyte
Fluorescent signal in oocytes ([1]; peptide concentration 0.75 μM): No signal was detected
Fluorescent signal in oocytes ([1]; peptide concentration 1.5 μM): no apparent signal
Fluorescent signal in oocytes ([1]; peptide concentration 6 μM): weak fluorescent signal
Fluorescent signal in oocytes ([1]; peptide concentration 12 μM): weak fluorescent signal

Reference: US20220204563A1, “DELIVERY PEPTIDES AND METHODS OF USING THE SAME” (NATIONAL INSTITUTE FOR BIOTECHNOLOGY IN THE NEGEV LTD., priority 2019, published 2022)
